Test systems include ACHN renal; SR leukemia; CCRF-CEM leukemia; MDA-MB-231 breast; SNB-19 CNS; OVCAR-4 ovarian; K-562 leukemia; SF-268 CNS.
What all share (assay): NCI tumour cell line growth inhibition, 48 h

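How tested: cells in 96-well plates exposed to compound for 48 hours at five concentrations. GI50: concentration for 50% inhibition of growth. TGI: total growth inhibition.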

In the case of `CC(=O)[O][Hg][c]1c(C)c(C)cc(C)c1C`, the GI50 in the assay with ACHN renal was 3.71 µM; in the assay on SR leukemia it was 0.0629 µM; in the assay with CCRF-CEM leukemia, 0.39 µM; in the assay with MDA-MB-231 breast, 0.87 µM; with SNB-19 CNS it was 1.7 µM; in the assay with OVCAR-4 ovarian it was 0.566 µM. The GI50 in the assay on K-562 leukemia is 0.743 µM; with SF-268 CNS it was 0.825 µM. Besides, the TGI in the assay on ACHN renal stood at 8.18 µM; in the assay with SR leukemia it was 2.21 µM; with CCRF-CEM leukemia it was 13.5 µM; in the assay on MDA-MB-231 breast it was 2.33 µM; in the assay with SNB-19 CNS it was 3.76 µM; with OVCAR-4 ovarian, 1.37 µM. The TGI was 11 µM in the assay with K-562 leukemia and 2.25 µM with SF-268 CNS.

Consider `COc1ccc(/C(C#N)=C2C=C/C(=N/O)c3ccccc3\2)cc1`, for which the GI50 in the assay with ACHN renal is 0.318 µM; with SR leukemia, 0.133 µM; in the assay with CCRF-CEM leukemia, 0.254 µM; in the assay on MDA-MB-231 breast it was 0.27 µM; with SNB-19 CNS, 2.8 µM; in the assay on OVCAR-4 ovarian, 0.927 µM. In addition, the GI50 in the assay on K-562 leukemia was 0.105 µM; in the assay with SF-268 CNS it was 0.481 µM. Also, the TGI in the assay with ACHN renal came to 15.4 µM; in the assay on SR leukemia, 5.06 µM; in the assay with CCRF-CEM leukemia, 12.6 µM; in the assay on MDA-MB-231 breast, 0.796 µM; in the assay on SNB-19 CNS, 29.6 µM; in the assay with OVCAR-4 ovarian, 39.1 µM. For the same molecule, the TGI in the assay with K-562 leukemia was 14.3 µM; in the assay with SF-268 CNS, 15 µM.

On to `CCc1nc(N)nc(N)c1-c1ccc(N2CCNCC2)cc1`, for which the TGI is greater than 100 µM with ACHN renal; greater than 66.9 µM in the assay on SR leukemia; greater than 86.7 µM with CCRF-CEM leukemia; greater than 100 µM in the assay with MDA-MB-231 breast; greater than 93.3 µM with SNB-19 CNS; greater than 100 µM in the assay on OVCAR-4 ovarian. Also, the results for the TGI in the assay with K-562 leukemia and in the assay on SF-268 CNS were greater than 87.2 µM and greater than 100 µM, respectively.

Turning to `CN1CSC(=S)N(Cc2ccccc2)C1`, the GI50 was 14.1 µM in the assay with ACHN renal; 2.11 µM in the assay with SR leukemia; 18 µM with CCRF-CEM leukemia; 13.6 µM in the assay on MDA-MB-231 breast; 77.1 µM in the assay with SNB-19 CNS; 14.2 µM in the assay on OVCAR-4 ovarian. The GI50 with K-562 leukemia was 2.81 µM; in the assay on SF-268 CNS it was 14.8 µM. Also, the TGI with ACHN renal was 27.1 µM; with SR leukemia, greater than 100 µM; with CCRF-CEM leukemia it was greater than 100 µM; in the assay with MDA-MB-231 breast, 37.7 µM; with SNB-19 CNS, greater than 100 µM; in the assay on OVCAR-4 ovarian, 27.8 µM. Besides, the values for the TGI in the assay on K-562 leukemia and in the assay with SF-268 CNS were greater than 100 µM and 36.1 µM, respectively.

For `COc1ccc(N(C)c2nc(N)nc3sc4c(c23)CCCC4)cc1`, the GI50 in the assay with ACHN renal, in the assay on SR leukemia, in the assay on CCRF-CEM leukemia, with MDA-MB-231 breast, in the assay with SNB-19 CNS and in the assay with OVCAR-4 ovarian was less than 0.01 µM in each case. Also, the GI50 with K-562 leukemia is less than 0.01 µM; in the assay on SF-268 CNS, less than 0.0159 µM. For the same molecule, the TGI was determined as 14.6 µM with ACHN renal; 11 µM in the assay with SR leukemia; 55.5 µM in the assay on CCRF-CEM leukemia; 0.918 µM with MDA-MB-231 breast; 16.9 µM with SNB-19 CNS; 15.3 µM in the assay with OVCAR-4 ovarian. In addition, the TGI in the assay on K-562 leukemia was greater than 42.2 µM; in the assay with SF-268 CNS, 14.5 µM.

As to `CCOC(=O)c1cnc2c(C)cccc2c1Nc1ccc(C(C)=O)cc1`, the GI50 is 33.5 µM in the assay on ACHN renal; 60.8 µM in the assay on SR leukemia; greater than 100 µM in the assay on CCRF-CEM leukemia; 19.7 µM with MDA-MB-231 breast; 40.2 µM in the assay with SNB-19 CNS; 13.5 µM in the assay on OVCAR-4 ovarian. The GI50 was greater than 100 µM in the assay on K-562 leukemia and 18.3 µM in the assay with SF-268 CNS. The TGI in the assay on ACHN renal was greater than 100 µM; in the assay on SR leukemia, greater than 100 µM; in the assay on CCRF-CEM leukemia, greater than 100 µM; in the assay with MDA-MB-231 breast, greater than 100 µM; with SNB-19 CNS, greater than 100 µM; in the assay on OVCAR-4 ovarian, 55.3 µM. Besides, the TGI was greater than 100 µM in the assay on K-562 leukemia and 64.2 µM in the assay with SF-268 CNS.

On to `COc1cc2cc(Oc3ccc(NC(=O)Nc4ccc(Cl)c(Cl)c4)cc3)c(C)nc2cc1OC`, for which the GI50 was 3 µM in the assay on ACHN renal; 3.1 µM with SR leukemia; 2.38 µM in the assay with CCRF-CEM leukemia; 2.46 µM in the assay on MDA-MB-231 breast; 4.26 µM with SNB-19 CNS; 2.67 µM in the assay on OVCAR-4 ovarian. In addition, the GI50 in the assay with K-562 leukemia was 3.33 µM; in the assay on SF-268 CNS, 8.23 µM. Moreover, the TGI came out at 12.1 µM in the assay with ACHN renal; 10.3 µM in the assay on SR leukemia; 14 µM in the assay on CCRF-CEM leukemia; 12 µM in the assay with MDA-MB-231 breast; 24 µM in the assay with SNB-19 CNS; 8.3 µM with OVCAR-4 ovarian. For the same molecule, the TGI in the assay with K-562 leukemia and in the assay on SF-268 CNS was greater than 100 µM each time.

`CO[C@H]1C[C@@H]2CC[C@@H](C)[C@@](O)(O2)C(=O)C(=O)N2CCCC[C@H]2C(=O)O[C@H]([C@H](C)C[C@@H]2CC[C@@H](OCCO)[C@H](OC)C2)CC(=O)[C@H](C)C=C(C)[C@@H](O)[C@@H](OC)C(=O)[C@H](C)C[C@H](C)/C=C/C=C/C=C1C`: the GI50 is less than 0.01 µM with ACHN renal; less than 0.01 µM with SR leukemia; 11.6 µM with MDA-MB-231 breast; less than 0.0124 µM with OVCAR-4 ovarian; 2.41 µM with K-562 leukemia; 0.269 µM in the assay on SF-268 CNS. For the same molecule, the TGI in the assay with ACHN renal was 18.8 µM; in the assay with SR leukemia it was 10.2 µM; in the assay with CCRF-CEM leukemia, greater than 43.1 µM; in the assay with MDA-MB-231 breast, 35.4 µM; with SNB-19 CNS, 19.5 µM; with OVCAR-4 ovarian, 17.1 µM. Moreover, the TGI in the assay with K-562 leukemia is 31.4 µM; with SF-268 CNS it was 21.1 µM.

`O=C1NC(=NCCCc2ccccc2)S/C1=C\c1ccc2ncccc2c1`: the GI50 with ACHN renal was 5.08 µM; in the assay on SR leukemia, 3.73 µM; in the assay with CCRF-CEM leukemia, 7.11 µM; in the assay with MDA-MB-231 breast, 8.12 µM; with SNB-19 CNS, 3.69 µM; in the assay with OVCAR-4 ovarian, 3.72 µM. The values for the GI50 in the assay on K-562 leukemia and with SF-268 CNS were 9.12 µM and 5.39 µM, respectively. For the same molecule, the TGI in the assay on ACHN renal was 15.6 µM; in the assay with SR leukemia, 16.5 µM; in the assay with CCRF-CEM leukemia it was greater than 25 µM; in the assay on MDA-MB-231 breast, greater than 22.5 µM; in the assay on SNB-19 CNS it was greater than 22.4 µM; with OVCAR-4 ovarian, 13.6 µM. Further, the figures for the TGI in the assay with K-562 leukemia and in the assay with SF-268 CNS were greater than 25 µM and 12.5 µM, respectively.

The values above are taken from PubChem BioAssay (NCI).
